{"source": "patent US11767313B2", "about": "“Compounds as nuclear transport modulators and uses thereof” (XWPHARMA LTD., priority 2018, dated 2023)", "key": {"U87MG": {"system": "U87MG", "experiment": "CellTiter-Glo cell proliferation assay, U87MG", "type": "cell-based, human", "conditions": "Homo sapiens, U-87 MG, 72 h, U87MG; 72 hours; Table 1; read-out: Growth inhibition (IC50)", "description": "(§1) CellTiter-Glo® Luminescent Cell Viability assay (with Promega CellTiter 96® Luminescent CellTiter-Glo® kit) was used to study the proliferation inhibition by test compounds. Compounds were resuspended in DMSO to make a 25 mM stock suspension. Cells of cancer cell lines or normal tissues were seeded in 96-well plates at 1,500 to 5,000 cells/well overnight. Compounds were 2- or 3-fold diluted serially to obtain 10 concentrations. Then, the drugs were added to the cell wells by Bravo (Agilent) and incubated for 72 hours. The cells were lysed by adding CellTiter-Glo® Reagent (per manufacturer's instructions) and subsequently, the luminescence was read using EnVision® (PerkinElmer).\n(§2) The percent of growth was calculated as follows. DMSO-treated cells were employed as vehicle control (High control, HC) and culture medium alone was employed as background (Low control, EC). % growth=100×(Lum sample−Lum EC)/(Lum HC−Lum EC). The ICso was calculated by concentration-response curve fitting using Graphpad Prism.\n(§3) Hematological cancer cell lines tested included OCI-AML3, MV-4-11, KG-1, Kasumi-1, K562, THP-1; solid cancer cell lines tested included U87MG, U251, T98G, LN229, A172, H460, H2009, A549; normal cell lines tested included HCN2 and 3T3-L1. […] However, they were not toxic to in vitro cultured normal cells."}, "A549": {"system": "A549", "experiment": "CellTiter-Glo cell proliferation assay, A549", "type": "cell-based", "conditions": "Homo sapiens, 72 hours, Table 1, read-out: Growth inhibition (IC50)", "description": "as §1, §2, §3"}, "H460": {"system": "H460", "experiment": "CellTiter-Glo cell proliferation assay, H460", "type": "cell-based", "conditions": "Homo sapiens, NCI-H460, 72 hours, Table 1, read-out: Growth inhibition (IC50)", "description": "as §1, §2, §3"}, "H2009": {"system": "H2009", "experiment": "CellTiter-Glo cell proliferation assay, H2009", "type": "cell-based", "conditions": "Homo sapiens, NCI-H2009, 72 hours, Table 1, read-out: Growth inhibition (IC50)", "description": "as §1, §2, §3"}, "MV411": {"system": "MV411", "experiment": "CellTiter-Glo cell proliferation assay, MV411", "type": "cell-based", "conditions": "Homo sapiens, MV4-11, 72 hours, Table 1, read-out: Growth inhibition (IC50)", "description": "as §1, §2, §3"}, "KG1": {"system": "KG1", "experiment": "CellTiter-Glo cell proliferation assay, KG1", "type": "cell-based", "conditions": "Homo sapiens, KG-1, 72 hours, Table 1, read-out: Growth inhibition (IC50)", "description": "as §1, §2, §3"}, "Kasumi-1": {"system": "Kasumi-1", "experiment": "CellTiter-Glo cell proliferation assay, Kasumi-1", "type": "cell-based", "conditions": "Homo sapiens, 72 hours, Table 1, read-out: Growth inhibition (IC50)", "description": "as §1, §2, §3"}, "OCI-AML3": {"system": "OCI-AML3", "experiment": "CellTiter-Glo cell proliferation assay, OCI-AML3", "type": "cell-based", "conditions": "Homo sapiens, OCI-AML-3, 72 hours, Table 1, read-out: Growth inhibition (IC50)", "description": "as §1, §2, §3"}, "K562": {"system": "K562", "experiment": "CellTiter-Glo cell proliferation assay, K562", "type": "cell-based", "conditions": "Homo sapiens, 72 hours, Table 1, read-out: Growth inhibition (IC50)", "description": "as §1, §2, §3"}, "THP-1": {"system": "THP-1", "experiment": "CellTiter-Glo cell proliferation assay, THP-1", "type": "cell-based", "conditions": "Homo sapiens, 72 hours, Table 1, read-out: Growth inhibition (IC50)", "description": "as §1, §2, §3"}, "[1]": {"experiment": "Pharmacokinetic profile summary", "type": "in vivo, mice or rats", "description": "Blood was collected from mice (n=3, or 5) to contribute to the total of 10 time points (pre-dose, 5 min, 15 min, 30 min, 1 hour, 2 hours, 4 hours, 8 hours, 12 hours and 24 hours). At the designated time points, animals were anaesthetized under isoflurane, and approximately 110 μL of blood per time point was collected via retro-orbital puncture into pre-cooled K2EDTA tubes. Blood samples were put on wet ice and centrifuged (2000 g, 5 min at 4° C.) to obtain plasma within 30 minutes of sample collection. All samples were stored frozen at approximately −80° C. until analysis. Prior to analysis, samples were mixed with internal standard in acetonitrile, vortexed, centrifuged, and supernatant was injected for analysis. Concentration of compounds in plasma was determined using LC-MS-MS instrumentation (API 4000, Triple Quadrupole LC/MS/MS Mass Spectrometer). AUC values were calculated using Phoenix Win Nonlin 6.3 software package, PO-Noncompartmental model 200 (extravascular input).\nFollowing collection, brain tissue was rinsed with cold saline, dried on filter paper, weighed and snap-frozen by placing on dry ice. All samples were stored frozen at approximately −80° C. until analysis. At the time of analysis, brain tissue was homogenized (homogenizing solution PBS, pH 7.4), mixed with internal standard in acetonitrile, vortexed, centrifuged, and supernatant was injected for analysis. Concentration of compounds in plasma was determined using LC-MS-MS instrumentation (API 4000, Triple Quadrupole LC/MS/MS Mass Spectrometer). Plasma samples were treated with the identical method (except homogenization step) and the concentration of compound in each matrix was calculated based on generated standard curves.\nThe pharmacokinetic profile of test compounds in mice or rats was determined from several test compounds was determined using the methods described in Example 22."}, "XPO1": {"target": "XPO1 (Homo sapiens, UniProt O14980)", "sequence (O14980 whole entry)": "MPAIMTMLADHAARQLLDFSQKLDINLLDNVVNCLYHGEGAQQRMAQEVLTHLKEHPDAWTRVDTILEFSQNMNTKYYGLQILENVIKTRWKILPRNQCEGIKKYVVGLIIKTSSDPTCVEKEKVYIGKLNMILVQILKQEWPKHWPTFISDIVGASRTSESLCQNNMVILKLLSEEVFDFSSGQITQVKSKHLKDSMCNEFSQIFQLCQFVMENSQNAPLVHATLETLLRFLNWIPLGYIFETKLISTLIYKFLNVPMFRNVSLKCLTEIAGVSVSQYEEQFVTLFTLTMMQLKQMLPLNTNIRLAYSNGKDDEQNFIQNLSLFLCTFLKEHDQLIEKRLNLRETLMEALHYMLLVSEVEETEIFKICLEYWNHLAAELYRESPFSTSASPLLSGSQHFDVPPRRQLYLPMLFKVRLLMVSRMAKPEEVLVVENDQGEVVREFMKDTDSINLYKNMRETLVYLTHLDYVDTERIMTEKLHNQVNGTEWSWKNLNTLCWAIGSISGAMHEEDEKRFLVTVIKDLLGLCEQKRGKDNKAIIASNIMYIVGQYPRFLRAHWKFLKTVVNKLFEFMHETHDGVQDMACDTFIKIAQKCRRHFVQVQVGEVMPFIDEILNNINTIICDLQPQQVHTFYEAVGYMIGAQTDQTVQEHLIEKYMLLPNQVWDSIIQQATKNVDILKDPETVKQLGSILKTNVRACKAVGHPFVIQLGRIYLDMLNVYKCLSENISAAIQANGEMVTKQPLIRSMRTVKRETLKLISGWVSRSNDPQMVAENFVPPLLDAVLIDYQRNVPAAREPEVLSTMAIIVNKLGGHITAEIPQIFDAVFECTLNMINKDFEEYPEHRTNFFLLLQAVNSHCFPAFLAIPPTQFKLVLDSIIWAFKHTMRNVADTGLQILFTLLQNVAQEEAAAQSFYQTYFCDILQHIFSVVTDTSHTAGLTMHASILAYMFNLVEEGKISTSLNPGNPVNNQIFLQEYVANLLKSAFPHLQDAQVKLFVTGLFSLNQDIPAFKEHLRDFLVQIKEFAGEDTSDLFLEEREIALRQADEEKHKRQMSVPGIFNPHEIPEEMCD", "experiment": "REV-GFP translocation assay in U2OS cells", "type": "cell-based", "set-up": "endogenous in cells; host or cells: U2OS cells stably expressing REV-GFP (clones from HD Biosciences)", "description": "LTD in China, and cells were cultured with growth medium. […] The highest Leptomycin B (LMB) concentration was set to 50 nM and serially diluted as the positive control, while the highest concentrations of other compounds were set to 10 μM. The cells treated with various drugs or DMSO, were incubated at 37° C. and 5% CO2 for 1 h. Then, cells were fixed with 4% formaldehyde for 15 min at room temperature. The cells were washed and stained with 100 μL Hoechst 33342 working solution for 10 min at room temperature in dark, after which the cell fluorescence was imaged with the High-Content Imaging System, ImageXpress® (Molecular Devices) using the 20× objective. The filters were set for Hoechst (350/461 nm) and GFP/FITC (488/509 nm) (wavelength for excitation and emission maxima). The % effect of REV nuclear translocation was calculated with the following formula: % effect=([…]- signals from testing compounds; ILMB-signals of 50 nM LMB group; ICTRL-signals of vehicle control group."}}, "note": "Read-outs that look alike come from different tables or passages of the source.", "data": [{"smiles": "NC(=O)/C(=C/n1cnc(-c2cc(C(F)(F)F)cc(S(F)(F)(F)(F)F)c2)n1)c1cncnc1", "note": "[Compound IV, (E)-3-(3-(3-(Pentafluorosulfaneyl)-5-(trifluoromethyl)phenyl)-1H-1,2,4-triazol-1-yl)-2-(pyrimidin-5-yl)acrylamide]", "values": [{"measurement": "IC50", "setting": "U87MG", "value": 0.194, "unit": "µM"}, {"measurement": "IC50", "setting": "A549", "value": 1.86, "unit": "µM"}, {"measurement": "IC50", "setting": "H460", "value": 0.306, "unit": "µM"}, {"measurement": "IC50", "setting": "H2009", "value": 0.453, "unit": "µM"}, {"measurement": "IC50", "setting": "MV411", "value": 0.11, "unit": "µM"}, {"measurement": "IC50", "setting": "KG1", "value": 0.698, "unit": "µM"}, {"measurement": "IC50", "setting": "Kasumi-1", "value": 0.124, "unit": "µM"}, {"measurement": "IC50", "setting": "OCI-AML3", "value": 0.341, "unit": "µM"}, {"measurement": "IC50", "setting": "K562", "value": 1.75, "unit": "µM"}, {"measurement": "IC50", "setting": "THP-1", "value": 0.838, "unit": "µM"}, {"measurement": "Kp", "setting": "[1]; brain/plasma, 5 mpk/AUC Ratio, read-out: B/P ratio", "value": 0.29}, {"measurement": "bioavailability", "setting": "[1]; plasma, oral, mice or rats", "value": 27, "unit": "%"}, {"measurement": "AUC", "setting": "[1]; plasma, po, 10 mg/kg, 10 mpk", "value": 1060, "unit": "ng·h/mL"}, {"measurement": "half-life", "setting": "[1]; plasma, mice or rats", "value": 2.9, "unit": "h"}, {"measurement": "Cmax", "setting": "[1]; po, 5 mg/kg, 5 mpk, first number of Plasma/brain pair, read-out: Cmax/(ng/mL) Plasma", "value": 276, "unit": "ng/mL"}, {"measurement": "Cmax", "setting": "[1]; po, 5 mg/kg, 5 mpk, second number of Plasma/brain pair, read-out: Cmax/(ng/mL) brain", "value": 68.5, "unit": "ng/mL"}, {"measurement": "Cmax", "setting": "[1]; po, 10 mg/kg, plasma, 10 mpk, read-out: Cmax (ng/ml) plasma/10 mpk", "value": 312, "unit": "ng/mL"}, {"measurement": "EC50", "setting": "XPO1; REV-EGFP U2OS cells, 1 h, Table 2, read-out: Rev-GFP/EC50", "value": 0.0148, "unit": "µM"}, {"measurement": "IC50", "setting": "XPO1; Table 10, first (or only) value of the cell", "value": 0.0148, "unit": "µM"}, {"measurement": "EC50", "setting": "XPO1; Table 13, read-out: Rev-GFP assay/μM", "value": 0.015, "unit": "µM"}]}]}
